Our source for the IC50 values is patent US20250171459A1, “2-METHYL-4',5'-DIHYDROSPIRO[PIPERIDINE-4,7'-THIENO[2,3-C]PYRAN] DERIVATIVES AS INHIBITORS OF APOL1 AND METHODS OF USING SAME” (Vertex Pharmaceuticals Incorporated, priority 2022, published 2025).

Each structure is given as a SMILES string. pIC50: −log10 of the molar value. Where only a bound is given, the exact number is not on record here.

The test addresses T1, APOL1 (Homo sapiens, UniProt O14791).
T1 sequence (O14791 1-398 S342G/I384M): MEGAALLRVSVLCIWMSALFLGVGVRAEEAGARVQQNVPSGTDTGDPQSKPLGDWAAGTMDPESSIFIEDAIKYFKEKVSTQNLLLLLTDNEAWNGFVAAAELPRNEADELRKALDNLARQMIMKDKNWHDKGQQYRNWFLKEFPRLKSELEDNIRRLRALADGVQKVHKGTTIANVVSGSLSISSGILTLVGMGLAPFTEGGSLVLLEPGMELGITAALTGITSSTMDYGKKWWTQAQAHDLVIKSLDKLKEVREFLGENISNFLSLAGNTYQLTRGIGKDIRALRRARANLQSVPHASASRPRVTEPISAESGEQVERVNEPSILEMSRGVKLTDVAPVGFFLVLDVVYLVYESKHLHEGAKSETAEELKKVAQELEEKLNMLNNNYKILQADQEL
The test can be described thus: MultiTox-Fluor Multiplex Cytotoxicity Assay in tet-inducible APOL1 T-REx-HEK293 cells (cell rescue, ratio of dead to live cells). The settings on record: tet-inducible transgenic APOL1 T-REx-HEK293 cell lines, 50 ng/mL tet, 24 hours; read-out: IP50 (i.e., IC50 for cell proliferation). The test is classed as cell-based. The text has this: The MultiTox-Fluor Multiplex Cytotoxicity Assay is a single-reagent-addition, homogeneous, fluorescence assay that measures the number of live and dead cells simultaneously in culture wells. The assay measures cell viability and cytotoxicity by detecting two distinct protease activities. […] The substrate enters intact cells, where it is cleaved to generate a fluorescent signal proportional to the number of living cells. […] A ratio of dead to live cells is used to normalize data.
The MultiTox reagent was added to each well and placed back in the incubator for an additional 30 minutes. The plate was read on the EnVision plate reader. A ratio of dead to live cells was used to normalize, and data was imported, analyzed, and fit using Genedata Screener (Basel, Switzerland) software. Data was normalized using percent of control, no tet (100% viability), and 50 ng/mL tet treated (0% viability), and fit using Smart Fit. The reagents, methods, and complete protocol for the MultiTox assay are described below.
Cells were washed with DPBS and then trypsinized to dissociate from the flask. Media was used to quench the trypsin, cells were then pelleted at 200 g and resuspended in fresh cell assay media (DMEM, 2% Tet-free FBS, 2 mM L-glutamine, 100 Units/mL penicillin-streptomycin). […] The plates were then incubated at room temperature for one hour.
Tetracycline is needed to induce APOL1 expression. 1 mg/mL tet stock in water was diluted to 250 ng/mL (5×) in cell assay media.
Compounds were dispensed at 200 nL in DMSO. The final top concentration was 10 μM with a 10 point 3-fold dilution in duplicate in the MultiTox assay.
20 μL was transferred from the 5× tet plate to the ARP and mixed, then 5 μL of 5× tet and the compounds were transferred to the cell plate and mixed using the Bravo. The cell plate was placed in the humidified 37° C. 5% CO2 incubator for 24 hours.
The MultiTox-Fluor Multiplex Cytotoxicity Assay was performed in accordance with the manufacturer's protocol. After cells were incubated with tet and compound for 24 hours, 25 μL of 1× MultiTox reagent was added to each well using the Multidrop dispenser; the plates were placed on a plate shaker (600 rpm) for 2 minutes, then centrifuged briefly and placed back in the 37° C. incubator for 30 minutes. The cell viability (excitation: 400 nm, emission: 486 nm) and cytotoxicity (excitation: 485 nm, emission: 535 nm) were read using the EnVision plate reader. A ratio of dead (cytotoxicity) to live (viability) cells was reported. Data was exported and analyzed in Genedata. Data was normalized using percent of control, no tet (100% viability), and 50 ng/mL tet treated (0% viability), and fit using Smart Fit settings in Genedata.
`CCc1cc2c(s1)CCO[C@@]21CCN(Cc2cn(C3CN(S(=O)(=O)CCO)C3)nn2)[C@@H](C)C1` [Compound 1, 2-[3-[4-[[(2′S,4R)-2-ethyl-2′-methyl-spiro[6,7-dihydrothieno[3,2-c]pyran-4,4′-piperidine]-1′-yl]methyl]triazol-1-yl]azetidin-1-yl]sulfonylethanol]: the pIC50 was greater than 7.00.

For `CCc1cc2c(s1)CCO[C@@]21CCN(Cc2cn(C3CN(S(=O)(=O)c4c[nH]cn4)C3)nn2)[C@@H](C)C1` [Compound 2], the pIC50 is greater than 7.00.

`CCc1cc2c(s1)CCO[C@@]21CCN(Cc2cn(C3CN(S(=O)(=O)c4nccn4C)C3)nn2)[C@@H](C)C1` [Compound 3]: the pIC50 is greater than 7.00.

Take `CCc1cc2c(s1)CCO[C@@]21CCN(Cc2cn(C3CN(S(=O)(=O)c4cn[nH]c4)C3)nn2)[C@@H](C)C1` [Compound 4]: the pIC50 is greater than 7.00.

In the case of `CCc1cc2c(s1)CCO[C@@]21CCN(Cc2cn(C3CN(S(=O)(=O)C4CC4)C3)nn2)[C@@H](C)C1` [Compound 5], the pIC50 is greater than 7.00.

Regarding `CCc1cc2c(s1)CCO[C@@]21CCN(Cc2cn(CCS(=O)(=O)NCCO)nn2)[C@@H](C)C1` [Compound 6, 2-[4-[[(2′S,4R)-2-ethyl-2′-methyl-spiro[6,7-dihydrothieno[3,2-c]pyran-4,4′-piperidine]-1′-yl]methyl]triazol-1-yl]-N-(2-hydroxyethyl)ethanesulfonamide], the pIC50 was greater than 7.00.

As to `CCc1cc2c(s1)CCO[C@@]21CCN(Cc2cn(CCS(=O)(=O)NCC(C)O)nn2)[C@@H](C)C1` (stereo partly drawn) [Compound 7, 2-[4-[[(2′S,4R)-2-ethyl-2′-methyl-spiro[6,7-dihydrothieno[3,2-c]pyran-4,4′-piperidine]-1′-yl]methyl]triazol-1-yl]-N-(2-hydroxypropyl)ethanesulfonamide], the pIC50 was greater than 7.00.

Consider `CCc1cc2c(s1)CCO[C@@]21CCN(Cc2c[nH]nn2)[C@@H](C)C1` [Compound 8, (2′S,4R)-2-ethyl-2′-methyl-1′-(1H-triazol-4-ylmethyl)spiro[6,7-dihydrothieno[3,2-c]pyran-4,4′-piperidine]], for which the pIC50 is greater than 7.00.

For `CCc1cc2c(s1)CCO[C@@]21CCN(Cc2cn(CCS(C)(=O)=O)nn2)[C@H](C)C1` [Compound 9, (2′R,4R)-2-ethyl-2′-methyl-1′-[[1-(2-methylsulfonylethyl)triazol-4-yl]methyl]spiro[6,7-dihydrothieno[3,2-c]pyran-4,4′-piperidine]], the pIC50 is 6.00 to 6.30.

Regarding `CCc1cc2c(s1)CCO[C@]21CCN(Cc2cn(CCS(C)(=O)=O)nn2)[C@H](C)C1` [Compound 10, (2′R,4S)-2-ethyl-2′-methyl-1′-[[1-(2-methylsulfonylethyl)triazol-4-yl]methyl]spiro[6,7-dihydrothieno[3,2-c]pyran-4,4′-piperidine]], the pIC50 was 6.00 to 6.30.

On to `CCc1cc2c(s1)CCO[C@@]21CCN(Cc2cn(CCS(C)(=O)=O)nn2)[C@@H](C)C1` [Compound 11, (2′S,4R)-2-ethyl-2′-methyl-1′-[[1-(2-methylsulfonylethyl)triazol-4-yl]methyl]spiro[6,7-dihydrothieno[3,2-c]pyran-4,4′-piperidine]], for which the pIC50 is greater than 7.00.

On to `CCc1cc2c(s1)CCO[C@@]21CCN(Cc2cn(CCS(=O)(=O)NC)nn2)[C@@H](C)C1` [Compound 12, 2-[4-[[(2′S)-2-ethyl-2′-methyl-spiro[6,7-dihydrothieno[3,2-c]pyran-4,4′-piperidine]-1′-yl]methyl]triazol-1-yl]-N-methyl-ethanesulfonamide], for which the pIC50 is greater than 7.00.

As for `CCc1cc2c(s1)CCO[C@@]21CCN(Cc2cn(CS(C)(=O)=O)nn2)[C@@H](C)C1` [Compound 13, (2′S)-2-ethyl-2′-methyl-1′-[[1-(methylsulfonylmethyl)triazol-4-yl]methyl]spiro[6,7-dihydrothieno[3,2-c]pyran-4,4′-piperidine]], the pIC50 is greater than 7.00.

Consider `CCc1cc2c(s1)CCO[C@@]21CCN(Cc2cn(CS(=O)(=O)CC)nn2)[C@@H](C)C1` [Compound 14, (2′S)-2-ethyl-1′-[[1-(ethylsulfonylmethyl)triazol-4-yl]methyl]-2′-methyl-spiro[6,7-dihydrothieno[3,2-c]pyran-4,4′-piperidine]], for which the pIC50 was 6.30 to 7.00.

Take `CCc1cc2c(s1)CCO[C@@]21CCN(Cc2cn([C@@H]3CCN(C(=O)OC(C)(C)C)C3)nn2)[C@@H](C)C1` [Compound 15, tert-butyl (3R)-3-[4-[[(2′S,4R)-2-ethyl-2′-methyl-spiro[6,7-dihydrothieno[3,2-c]pyran-4,4′-piperidine]-1′-yl]methyl]triazol-1-yl]pyrrolidine-1-carboxylate]: the pIC50 was 6.30 to 7.00.

As for `CCc1cc2c(s1)CCO[C@@]21CCN(Cc2cn(-c3cncc(O)c3)nn2)[C@@H](C)C1` [Compound 16, 5-[4-[[(2′S,4R)-2-ethyl-2′-methyl-spiro[6,7-dihydrothieno[3,2-c]pyran-4,4′-piperidine]-1′-yl]methyl]triazol-1-yl]pyridin-3-ol], the pIC50 is 6.30 to 7.00.

Regarding `CCc1cc2c(s1)CCO[C@@]21CCN(Cc2cn([C@H]3CCN(C(=O)OC(C)(C)C)C3)nn2)[C@@H](C)C1` [Compound 17], the pIC50 was greater than 7.00.

With `CCc1cc2c(s1)CCO[C@@]21CCN(Cc2cn([C@H]3C[C@H](S(C)(=O)=O)C3)nn2)[C@@H](C)C1` [Compound 18], the pIC50 is greater than 7.00.

Take `CCc1cc2c(s1)CCO[C@@]21CCN(Cc2cn([C@H]3C[C@@H](S(C)(=O)=O)C3)nn2)[C@@H](C)C1` [Compound 19]: the pIC50 is 6.30 to 7.00.

On to `CCc1cc2c(s1)CCO[C@@]21CCN(Cc2cn(C3CCN(S(C)(=O)=O)CC3)nn2)[C@@H](C)C1` [Compound 20], for which the pIC50 is 6.30 to 7.00.

Turning to `CCc1cc2c(s1)CCO[C@@]21CCN(Cc2cn(C3CN(C(=O)OC(C)(C)C)C3)nn2)[C@@H](C)C1` [Compound 21], the pIC50 is greater than 7.00.

As for `CCc1cc2c(s1)CCO[C@@]21CCN(Cc2cn(CCSC(F)(F)F)nn2)[C@@H](C)C1` [Compound 22], the pIC50 is greater than 7.00.

For the molecule `CCc1cc2c(s1)CCO[C@@]21CCN(Cc2cn(CCSCCO)nn2)[C@@H](C)C1` [Compound 23], the pIC50 is greater than 7.00.

Turning to `CCc1cc2c(s1)CCO[C@@]21CCN(Cc2cn(CCSCC(C)(C)O)nn2)[C@@H](C)C1` [Compound 24], the pIC50 was greater than 7.00.

In the case of `CCc1cc2c(s1)CCO[C@@]21CCN(Cc2cn(C3CC4(C3)CS(=O)(=O)C4)nn2)[C@@H](C)C1` [Compound 25], the pIC50 is greater than 7.00.

On to `CCc1cc2c(s1)CCO[C@@]21CCN(Cc2cn(CCS(=O)(=O)c3ccccc3)nn2)[C@@H](C)C1` [Compound 26], for which the pIC50 was greater than 7.00.

On to `CCc1cc2c(s1)CCO[C@@]21CCN(Cc2cn([C@H]3CCN(S(C)(=O)=O)C3)nn2)[C@@H](C)C1` [Compound 27], for which the pIC50 is greater than 7.00.

In the case of `CCc1cc2c(s1)CCO[C@@]21CCN(Cc2cn(C3CCCN(S(C)(=O)=O)C3)nn2)[C@@H](C)C1` (stereo partly shown) [Compound 28], the pIC50 was 6.30 to 7.00.

Turning to `CCc1cc2c(s1)CCO[C@@]21CCN(Cc2cn(C3CS(=O)(=O)C3)nn2)[C@@H](C)C1` [Compound 29], the pIC50 is greater than 7.00.

For `CCc1cc2c(s1)CCO[C@@]21CCN(Cc2cn(C3CCN(S(C)(=O)=O)C3)nn2)[C@@H](C)C1` (stereo partly shown) [Compound 30], the pIC50 was 6.30 to 7.00.

In the case of `CCc1cc2c(s1)CCO[C@@]21CCN(Cc2cn(CCn3ccnc3)nn2)[C@@H](C)C1` [Compound 31], the pIC50 is 6.30 to 7.00.
